Data published in US12358899B2, “Thyroid hormone receptor agonists and uses thereof” (XIZANG HAISCO PHARMACEUTICAL CO., LTD., priority 2018, dated 2025).

Key:
CYP 2C8 = molecular target: T1, CYP 2C8 (Homo sapiens, UniProt P10632); test: CYP inhibition in human liver microsome, 2C8; format: in vitro ADME; settings: human liver microsomes, substrate amodiaquine, top 50 μM; read-out: CYP450 inhibition IC50 2C8
T1 construct: from tissue; host or cells: human liver microsomes
T1 sequence (P10632 1-490): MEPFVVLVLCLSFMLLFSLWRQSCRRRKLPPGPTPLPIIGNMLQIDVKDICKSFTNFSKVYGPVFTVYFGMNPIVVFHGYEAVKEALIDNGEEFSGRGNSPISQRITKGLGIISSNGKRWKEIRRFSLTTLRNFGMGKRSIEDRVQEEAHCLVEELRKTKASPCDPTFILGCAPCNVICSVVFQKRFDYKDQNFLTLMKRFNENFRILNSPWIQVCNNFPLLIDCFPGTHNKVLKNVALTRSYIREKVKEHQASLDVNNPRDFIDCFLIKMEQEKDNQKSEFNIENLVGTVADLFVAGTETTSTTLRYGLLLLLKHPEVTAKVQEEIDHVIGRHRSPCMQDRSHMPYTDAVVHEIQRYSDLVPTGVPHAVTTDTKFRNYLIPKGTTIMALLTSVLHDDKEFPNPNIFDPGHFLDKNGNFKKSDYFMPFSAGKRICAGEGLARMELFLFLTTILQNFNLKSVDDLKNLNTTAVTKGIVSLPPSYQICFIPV
Procedure: (§1) Test compounds were evaluated for CYP inhibition using human liver microsomes (HLM). Test compounds were 1:3 serially diluted starting at 50 μM to generate 7 different concentrations. After incubation of diluted test compounds with HLM, a substrate cocktail composed of phenacetin (10 uM), amodiaquine (2 uM), diclofenac (5 uM), s-mephenytoin (30 uM), dextromethorphan (5 uM), and midazolam (2 uM) was added to check the remaining CYP activity for CYP 1A2, 2C8, 2C9, 2C19, 2D6 and 3A4. The CYP activity was measured by detecting the peak area of individual metabolites of know CYP substrates using LC/MS/MS. A percentage of inhibition of CYP was calculated at each final concentration of test compound, through which an IC50 was fitted to represent the inhibition potential.

CYP 2C9 = molecular target: T2, CYP 2C9 (Homo sapiens, UniProt P11712); test: CYP inhibition in human liver microsome, 2C9; format: in vitro ADME; settings: human liver microsomes, substrate diclofenac, top 50 μM; read-out: CYP450 inhibition IC50 2C9
T2 construct: from tissue; host or cells: human liver microsomes
T2 sequence (P11712 whole entry): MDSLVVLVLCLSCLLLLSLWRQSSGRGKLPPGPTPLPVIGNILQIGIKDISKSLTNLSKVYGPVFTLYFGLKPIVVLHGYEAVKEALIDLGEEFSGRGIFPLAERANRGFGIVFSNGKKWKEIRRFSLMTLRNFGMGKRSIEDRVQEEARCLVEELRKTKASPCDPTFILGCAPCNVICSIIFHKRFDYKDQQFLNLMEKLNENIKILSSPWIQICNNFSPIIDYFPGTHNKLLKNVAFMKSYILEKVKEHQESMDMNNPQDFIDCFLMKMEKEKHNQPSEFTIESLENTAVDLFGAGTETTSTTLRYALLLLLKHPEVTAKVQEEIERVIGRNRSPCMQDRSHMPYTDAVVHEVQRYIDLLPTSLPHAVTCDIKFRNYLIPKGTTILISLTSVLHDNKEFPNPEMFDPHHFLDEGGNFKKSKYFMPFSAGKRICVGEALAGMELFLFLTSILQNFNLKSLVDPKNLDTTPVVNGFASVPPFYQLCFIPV
Procedure: as §1

C57BL/6cnc mice [1] = test: Antifibrotic and fat reduction efficacy in NASH mouse model; format: in vivo; settings: for expression of DIO1 in liver: end of study
Procedure: C57BL/6cnc mice were fed with high-fat diet containing 60 kacl % fat and 0.10% methionine (no added choline) (Research Diets, A06071302) for 12 weeks to induce NASH model. After 12-week diet induction, the mice had increased plasma levels of TC, LDL-c, ALT, and fibrosis markers. Two studies were performed on this diet-induced NASH model with different compounds and treatment durations. […] Serum biochemistry was measured before dosing during study. At the end of the experiment, liver was collected to measure liver TC and TG. Livers were punched in 2 mm diameter and fixed, sectioned and stained with Sirius Red, and the fibrosis and steatosis were scored.

CYP 2C19 = molecular target: T3, CYP 2C19 (Homo sapiens, UniProt P33261); test: CYP inhibition in human liver microsome, 2C19; format: in vitro ADME; settings: human liver microsomes, substrate s-mephenytoin, top 50 μM; read-out: CYP450 inhibition IC50 2C19
T3 construct: from tissue; host or cells: human liver microsomes
T3 sequence (P33261 whole entry): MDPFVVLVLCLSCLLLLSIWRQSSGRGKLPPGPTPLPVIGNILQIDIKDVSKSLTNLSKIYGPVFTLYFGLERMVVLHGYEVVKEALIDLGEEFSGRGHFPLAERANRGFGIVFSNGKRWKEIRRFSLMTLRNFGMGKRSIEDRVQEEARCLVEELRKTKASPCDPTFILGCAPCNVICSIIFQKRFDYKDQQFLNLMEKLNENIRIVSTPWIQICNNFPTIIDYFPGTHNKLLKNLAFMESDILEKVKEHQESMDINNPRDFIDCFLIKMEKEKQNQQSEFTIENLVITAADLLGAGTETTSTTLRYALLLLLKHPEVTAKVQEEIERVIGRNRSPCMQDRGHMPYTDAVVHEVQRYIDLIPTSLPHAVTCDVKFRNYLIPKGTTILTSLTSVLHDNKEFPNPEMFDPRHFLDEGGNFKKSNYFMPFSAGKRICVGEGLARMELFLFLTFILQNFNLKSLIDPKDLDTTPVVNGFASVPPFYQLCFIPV
Procedure: as §1

THRα-LBD = molecular target: T4, THRα-LBD (Homo sapiens, UniProt P10827); test: THR coactivator recruitment assay (LanthaScreen TR-FRET), THRα; format: biochemical; settings: for THRα Bmax % (vs T3): maximum activity relative to the maximum activity of 500 nM T3
T4 construct: purchased ThermoFisher
T4 sequence (P10827 163-410 isoform P10827-2 limits assumed, other chains not shown): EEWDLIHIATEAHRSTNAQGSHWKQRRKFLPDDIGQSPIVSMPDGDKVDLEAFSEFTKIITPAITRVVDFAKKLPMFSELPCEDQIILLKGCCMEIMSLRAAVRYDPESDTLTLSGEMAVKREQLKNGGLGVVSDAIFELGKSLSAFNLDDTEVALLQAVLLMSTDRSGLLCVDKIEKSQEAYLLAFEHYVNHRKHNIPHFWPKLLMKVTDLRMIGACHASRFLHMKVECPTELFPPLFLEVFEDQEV
Procedure: The coactivator recruitment assay was performed using LanthaScreen™ TR-FRET TR coactivator assay kit (ThermoFisher). […] The diluted test compounds were mixed with the same volume of other reagents (10 μl:10 μl). […] In addition, the selectivity for each compound was normalized for the selectivity of T3 run in the same assay.

CYP 2D6 = molecular target: T5, CYP 2D6 (Homo sapiens, UniProt P10635); test: CYP inhibition in human liver microsome, 2D6; format: in vitro ADME; settings: human liver microsomes, substrate dextromethorphan, top 50 μM; read-out: CYP450 inhibition IC50 2D6
T5 construct: from tissue; host or cells: human liver microsomes
T5 sequence (P10635 whole entry): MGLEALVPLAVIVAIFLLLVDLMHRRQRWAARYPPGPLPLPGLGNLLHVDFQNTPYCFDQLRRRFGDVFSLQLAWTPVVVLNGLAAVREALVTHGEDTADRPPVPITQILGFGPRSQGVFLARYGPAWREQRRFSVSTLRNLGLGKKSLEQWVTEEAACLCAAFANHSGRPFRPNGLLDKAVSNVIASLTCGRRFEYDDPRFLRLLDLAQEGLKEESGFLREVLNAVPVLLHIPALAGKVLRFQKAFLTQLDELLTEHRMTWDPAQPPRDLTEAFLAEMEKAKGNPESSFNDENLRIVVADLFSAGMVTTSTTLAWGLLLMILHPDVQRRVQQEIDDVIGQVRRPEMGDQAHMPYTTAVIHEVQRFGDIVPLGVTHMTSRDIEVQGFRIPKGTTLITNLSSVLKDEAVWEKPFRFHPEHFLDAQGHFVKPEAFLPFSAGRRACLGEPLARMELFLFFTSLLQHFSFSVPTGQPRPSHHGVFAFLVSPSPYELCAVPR
Procedure: as §1

C57BL/6cnc mice [2] = test: Cholesterol-lowering efficacy in trans-fat AMLN diet-induced hypercholesterolemia mouse model; format: in vivo; settings: for LDL-c / liver TC / plasma TC: daily oral gavage 2 weeks, 0.3-3 mg/kg (Example 7) or 1 and 3 mg/kg; for efficacy in cholesterol reduction compared with MGL-3196: same dose
Procedure: C57BL/6cnc mice were fed with AMVLN diet containing 40 Kcal % Fat, 20 Kcal % Fructose and 2% Cholesterol (Research Diets, D09100301) for 5 weeks to induce hypercholesterolemia. The cholesterol lowering efficacy of compounds disclosed herein were tested in two separate studies. […] Thyroid hormone T3 (0.1 mg/kg, intraperitoneal injection) was evaluated as a positive control in both studies. The treatment lasted two weeks with daily oral gavage. Blood samples were taken before the dosing on the first day and again at the end of study for detection of plasma cholesterol (TC), triglycerides (TG) and LDL-c. […] At the end of study, the liver tissues were taken for measuring the hepatic TC and TG levels. The compound concentration was quantified in blood, liver and heart.

CYP 3A4 = molecular target: T6, CYP 3A4 (Homo sapiens, UniProt P08684); test: CYP inhibition in human liver microsome, 3A4; format: in vitro ADME; settings: human liver microsomes, substrate midazolam, top 50 μM; read-out: CYP450 inhibition IC50 3A4
T6 construct: from tissue; host or cells: human liver microsomes
T6 sequence (P08684 whole entry): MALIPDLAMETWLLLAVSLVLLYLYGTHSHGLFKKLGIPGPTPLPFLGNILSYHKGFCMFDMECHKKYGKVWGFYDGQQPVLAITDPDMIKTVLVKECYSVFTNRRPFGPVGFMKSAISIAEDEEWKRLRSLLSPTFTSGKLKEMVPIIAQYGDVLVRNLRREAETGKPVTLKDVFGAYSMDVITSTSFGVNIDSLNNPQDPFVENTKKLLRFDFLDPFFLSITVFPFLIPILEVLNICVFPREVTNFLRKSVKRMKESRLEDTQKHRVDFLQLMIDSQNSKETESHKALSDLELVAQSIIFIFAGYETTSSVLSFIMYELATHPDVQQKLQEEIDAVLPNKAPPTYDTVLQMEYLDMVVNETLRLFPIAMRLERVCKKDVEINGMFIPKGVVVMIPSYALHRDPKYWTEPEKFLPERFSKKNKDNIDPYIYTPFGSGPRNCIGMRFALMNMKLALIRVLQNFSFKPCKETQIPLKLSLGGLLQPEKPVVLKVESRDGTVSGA
Procedure: as §1

C57BL/6cnc mice [3] = test: Cholesterol-lowering efficacy in high cholesterol diet-induced hypercholesterolemia mouse model; format: in vivo; settings: for compound concentration in heart: at end of study; for compound concentration in heart / blood and liver distribution / efficacy in reducing liver cholesterol compared with MGL-3196 / expression of DIO1 in liver: high cholesterol diet mice; for blood and liver distribution: compound concentration at end of study; for LDL-c / plasma TC: 2-week treatment; for expression of DIO1 in liver: qPCR, mRNA of THRβ target gene
Procedure: To further confirm the PD effects of compounds, another diet induced NAFLD mouse model was used. C57BL/6cnc mice were fed with the diet containing 1.5% cholesterol and 0.5% cholic acid (Research Diets, D12109C) for 2 weeks prior to the initiation of treatment. The cholesterol lowering efficacy of compounds disclosed herein was tested in two separate studies. […] Thyroid hormone T3 (0.1 mg/kg, intraperitoneal injection) was evaluated as a positive control in the second study. The treatment lasted two weeks with daily oral gavage. Blood samples were taken at the end of study for plasma cholesterol and LDL-c detection. At the end of study, the liver tissues were taken for measurement of the hepatic cholesterol levels. DIO1 is a THRβ target gene in liver, and its mRNA level reflects the activity of THRO. Therefore, the expression of DIO1 was also quantitated in liver tissue by qPCR to examine the target engagement by these compounds. The compound concentration was quantified in blood, liver and heart.

[4] = second NASH study, 1 mg/kg daily oral, 6 weeks
[5] = high cholesterol diet mice, 0.3, 1, 3 mg/kg daily oral gavage
[6] = first NASH study, 1 mg/kg daily oral, 12 weeks
[7] = first NASH study, 1 mg/kg daily oral, 12 weeks, to normal range
[8] = AMLN diet mice, 0.3, 1, 3 mg/kg oral, 2 weeks, MGL-3196 effect at doses greater than 1 mg/kg
[9] = high cholesterol diet mice, 0.3, 1, 3 mg/kg daily oral gavage, 2 weeks

Row | Structure (SMILES) | IC50 (CYP 2C8) | IC50 (CYP 2C9) | overall activity in the second NASH study, compounds compared (C57BL/6cnc mice [1]; 1 mg/kg daily oral, 6 weeks) | LDL-c level (C57BL/6cnc mice [1]; [4]) | liver TC (C57BL/6cnc mice [1]; [4]) | liver TG (C57BL/6cnc mice [1]; [4]) | plasma TC level (C57BL/6cnc mice [1]; [4]) | IC50 (CYP 2C19) | THRα Bmax % (vs T3) (THRα-LBD) | IC50 (CYP 2D6) | LDL-c (C57BL/6cnc mice [2]; AMLN diet mice) | liver TC (C57BL/6cnc mice [2]; AMLN diet mice) | plasma TC (C57BL/6cnc mice [2]; AMLN diet mice) | IC50 (CYP 3A4) | compound concentration in heart (C57BL/6cnc mice [3]) | blood and liver distribution (C57BL/6cnc mice [3]) | efficacy in reducing liver cholesterol compared with MGL-3196 (C57BL/6cnc mice [3]) | LDL-c (C57BL/6cnc mice [3]; [5]) | plasma TC (C57BL/6cnc mice [3]; [5]) | expression of DIO1 in liver (C57BL/6cnc mice [3]) | also measured
1 | C[C@@H]1CCc2c(Oc3c(Cl)cc(-n4nc(C#N)c(=O)[nH]c4=O)cc3Cl)n[nH]c(=O)c21 (single isomer, unassigned) [Example 41] | 3.08 µM | 15.6 µM | equivalent | reduced | significantly decreased | significantly decreased | reduced | > 50 µM | 36% | > 50 µM | significantly reduced | significantly reduced | significantly reduced | > 50 µM | not detectable | similar | as effective as MGL-3196 | reduced | reduced | dose-dependently upregulated | expression of DIO1 in liver (C57BL/6cnc mice [1]; second NASH study): significantly increased; EC50 (THRα-LBD; EC50 class from TR-FRET ratio 520:495 dose response, read-out: THRα binding): 0.1 to 1 µM; efficacy in cholesterol reduction compared with MGL-3196 (C57BL/6cnc mice [2]; AMLN diet mice): more effective; rank among the compounds in reducing the liver and plasma cholesterol (C57BL/6cnc mice [2]; AMLN diet mice, second study, 1 and 3 mg/kg): most effective
2 | [2H]C([2H])([2H])C(c1cc(Oc2c(Cl)cc(-n3nc(C#N)c(=O)[nH]c3=O)cc2Cl)n[nH]c1=O)C([2H])([2H])[2H] [Example 7, 2-(3,5-dichloro-4-((6-oxo-5-(propan-2-yl-1,1,1,3,3,3-d6)-1,6-dihydropyridazin-3-yl)oxy)phenyl)-3,5-dioxo-2,3,4,5-tetrahydro-1,2,4-triazine-6-carbonitrile] | 7.56 µM | 30.7 µM | equivalent | reduced | significantly decreased | significantly decreased | reduced | > 50 µM | 41% | > 50 µM | significantly reduced | significantly reduced | significantly reduced | > 50 µM | not detectable | similar | as effective as MGL-3196 | reduced | reduced | dose-dependently upregulated | liver TC (C57BL/6cnc mice [1]; [6]): significantly decreased; liver TG (C57BL/6cnc mice [1]; [6]): significantly decreased; plasma LDL-c level (C57BL/6cnc mice [1]; [6]): reduced to normal range; plasma TC level (C57BL/6cnc mice [1]; first NASH study, 1 mg/kg daily oral, 12 weeks, as early as 6 days after treatment): reduced; ALT level (C57BL/6cnc mice [1]; [7]): reduced; liver weight (C57BL/6cnc mice [1]; [7]): reduced; fibrosis score (C57BL/6cnc mice [1]; first NASH study, Sirius Red histopathology, versus control group and MGL-3196-treated group): much lower; expression of DIO1 in liver (C57BL/6cnc mice [1]; second NASH study): significantly increased; ALT (C57BL/6cnc mice [2]; [8]): no effect; AST (C57BL/6cnc mice [2]; [8]): no effect; liver function safety compared with MGL-3196 (C57BL/6cnc mice [2]; AMLN diet mice, from ALT and AST): safer; efficacy in cholesterol reduction compared with MGL-3196 (C57BL/6cnc mice [2]; AMLN diet mice): comparable efficacy; liver TC (C57BL/6cnc mice [3]; [9]): significantly decreased; liver TG (C57BL/6cnc mice [3]; [9]): significantly decreased
3 | [2H]c1c(Cl)c(Oc2cc(C(C([2H])([2H])[2H])C([2H])([2H])[2H])c(=O)[nH]n2)c(Cl)c([2H])c1-n1nc(C#N)c(=O)[nH]c1=O [Example 30, 2-(3,5-dichloro-4-((6-oxo-5-(propan-2-yl-1,1,1,3,3,3-d6)-1,6-dihydropyridazin-3-yl)oxy)phenyl-2,6-d2)-3,5-dioxo-2,3,4,5-tetrahydro-1,2,4-triazine-6-carbonitrile] | 4.24 µM | 22.1 µM | less potent | reduced |  |  | reduced | > 50 µM | 34% | > 50 µM | significantly reduced | significantly reduced | significantly reduced | > 50 µM | not detectable | similar | as effective as MGL-3196 | reduced | reduced | dose-dependently upregulated | 
